In patent publication US11883452B2, “Use of combination or composition of Radix et Rhizoma Notoginseng and aspirin” (CHINESE ACADEMY OF MEDICAL SCIENCES INSTITUTE OF MEDICINAL …, priority 2017, dated 2024):

What was measured:
Format in all cases: in vivo, SD rats
[1] = test system: myocardial ischemia reperfusion injury model rats; assay: Myocardial infarction volume by TTC staining in myocardial ischemia-reperfusion injury rats; conditions: x ± s
Protocol: 240 male SD rats were randomly divided into 8 groups, with 30 rats in each group, including a sham operated group, a myocardial ischemia reperfusion injury model group, a group treated with the total saponins from Radix et Rhizoma Notoginseng at a dosage of 50 mg/kg, a group treated with aspirin at a dosage of 10 mg/kg, a group treated with aspirin at a dosage 5 mg/kg, a group treated with the combination of the total saponins from Radix et Rhizoma Notoginseng at a dosage of 50 mg/kg and aspirin at a dosage of 5 mg/kg. […]
The rats were anesthetized by intraperitoneal injection of pentobarbital sodium at a dose of 40 mg/kg body weight, and were connected to a small animal ventilator through an oral cannula, with a respiratory rate of 70 breaths/min, a respiratory ratio of 1:1, and a tidal volume of 1 mL. Real time electrocardiograms of the rats were recorded on a multi-lead physiological recorder available from AD Instruments. […]
Myocardial infarction volumes were evaluated by triphenyl tetrazolium chloride (TTC) staining. […] Myocardial infarction volumes were evaluated and calculated using Image-Pro plus 5.1 software

[2] = test system: myocardial ischemia reperfusion injury model rats; assay: Three myocardial enzymes (AST, LDH, CK) in myocardial ischemia-reperfusion injury rats
Protocol: Rats in the groups treated with the total saponins from Radix et Rhizoma Notoginseng and/or aspirin were administrated intragastrically with the total saponins from Radix et Rhizoma Notoginseng and/or aspirin for a week, and rats in the sham operated group and model group were administrated intragastrically with an equivalent volume of distilled water. […] Real time electrocardiograms of the rats were recorded on a multi-lead physiological recorder available from AD Instruments. Thoracotomy was performed on the rats. An incision of 2 to 3 cm was made at a place between the 3rd and 4th ribs and about 0.5 cm from the left side of the sternum, a chest expander was used to open the ribs, and the pericardium was cut when exhaling to expose the heart. Myocardial ischemia was established by ligating the left coronary artery. […] After being stabilized for 5 minutes, the silk thread was passed through a disposable intravenous infusion hose with a length of about 3.5 cm. After the silk thread was pulled out, the silk thread was gently lifted, and the hose was pushed down and was fixed with a hemostatic forceps. […] The ligation was considered successful if: the ST segment was elevated, and the color of local myocardial tissue changed from red to gray; and after 30 minutes of reperfusion, the ST segment fell by more than 50%, and the color of myocardial tissue changed from gray to red. After the reperfusion was completed, blood was taken from the abdominal aorta and analyzed on an automatic biochemical analyzer to detect the levels of three myocardial enzymes (AST, LDH, CK) in plasma.

[3] = test system: middle cerebral artery occlusion (MCAO/R) model rats; assay: Neurological evaluation (Longa's five-grade score) in MCAO/R rats
[4] = test system: middle cerebral artery occlusion (MCAO/R) model rats; assay: Cerebral infarction volume by TTC staining in MCAO/R rats; conditions: 24 hours of reperfusion
Protocol: (§1) 240 male SD rats were randomly divided into 8 groups, with 30 rats in each group, including a sham operated group, a middle cerebral artery occlusion (MCAO/R) model group, a group treated with the total saponins from Radix et Rhizoma Notoginseng at a dosage of 50 mg/kg, a group treated with aspirin at a dosage of 10 mg/kg, a group treated with aspirin at a dosage of 5 mg/kg, a group treated with the combination of the total saponins from Radix et Rhizoma Notoginseng at a dosage of 50 mg/kg and aspirin at a dosage of 5 mg/kg. The rats in the groups treated with the total saponins from Radix et Rhizoma Notoginseng and/or aspirin were administrated intragastrically with the total saponins from Radix et Rhizoma Notoginseng and/or aspirin for a week before MCAO, and the rats in the sham operated group and model group were administrated intragastrically with an equivalent volume of distilled water.
Middle cerebral artery occlusion (MCAO) model was established by thread embolization method. The surgical procedure was carried out under strictly aseptic conditions mainly according to the following steps: The rats were anesthetized by intraperitoneal injection of ketamine (80 mg/kg) and xylazine (10 mg/kg). […]
Cerebral infarction volumes were determined by triphenyl tetrazolium chloride (TTC) staining. […] Cerebral infarction volumes were evaluated and calculated using Image-Pro plus 5.1 software.

[5] = test system: platelets in platelet-rich plasma; assay: Maximum platelet aggregation rate (ADP-induced, platelet-rich plasma) in MCAO/R rats; conditions: ADP 2 μmol/L
Protocol: as §1, with “water. […]” for “water.”
3.6 mL of blood was taken from the rats (n=10), anticoagulated with 3.8% sodium citrate (9:1), centrifuged at 150 g for 10 min to separate a platelet-rich plasma, and then centrifuged at 1500 g for 10 min to obtain a supernatant, which was platelet-poor plasma. […] Maximum aggregation within 5 minutes and maximum aggregation time of platelets in platelet-rich plasma were detected with a blood agglutination instrument.

[6] = test system: middle cerebral artery occlusion (MCAO/R) model rats; assay: Serum inflammatory factors by ELISA in MCAO/R rats
[7] = test system: middle cerebral artery occlusion (MCAO/R) model rats; assay: Canine urea levels in serum, hippocampus and cerebral cortex by ELISA in MCAO/R rats
Protocol: Middle cerebral artery occlusion (MCAO) model was established by thread embolization method. The surgical procedure was carried out under strictly aseptic conditions mainly according to the following steps: The rats were anesthetized by intraperitoneal injection of ketamine (80 mg/kg) and xylazine (10 mg/kg). The common carotid artery (CCA), external carotid artery (ECA) and internal carotid artery (ICA) were fully exposed, the common carotid artery was clamped with a vascular clip, and the branches of the external carotid artery were electrocoagulated with a bipolar electrocoagulation forceps. The main trunk of the external carotid artery was freed and ligated at 3 to 4 mm from the bifurcation of the common carotid artery. The internal carotid artery was temporarily clamped with a vascular clip. Corneal scissors were used to make a small incision in the external carotid artery. A 4-0 monofilament nylon thread coated with methylpolysiloxane was inserted and was tied a loose knot at the small incision of the external carotid artery to block the blood reflux of the internal carotid artery. The clip was removed from the internal carotid artery, and the nylon thread was gently pushed into the internal carotid artery to reach the intracranial anterior cerebral artery to block an incision of the middle cerebral artery (MCA), with an insertion depth of about 18-22 mm. The clip was removed from the common carotid artery, and the subcutaneous tissue and skin were sutured layer by layer after disinfection, and 2 hours later the nylon thread was slowly withdrawn to perform reperfusion for 24 hours. The operation to the sham operated group is the same as the above except that nylon thread is not inserted. The rectum of all rats was maintained at a temperature of 37° C. throughout the experiment.
5 mL of blood was taken from the abdominal aorta of the rats (n=8), and centrifuged at 3000 rpm for 10 min to obtain a serum. Hippocampus and cerebral cortex were separated from the brain tissue, homogenized, and centrifuged at 3000 rpm for 10 min to obtain a supernatant. Serum MDA, SOD, CAT and GSH-Px levels were detected with kits available from Nanjing Jiancheng; levels of canine urea and inflammatory response indicators MCP-1, TNF-α, IL-1β, IL-4, IL-6 and IL-10 were detected with ELISA kits.

rat gastric mucosa = assay: HE staining to detect pathological changes of gastric mucosa; conditions: aspirin 10 mg/kg intragastrically daily for 4 weeks; rats
Protocol: (§2) 40 male SD rats were randomly divided into 4 groups, with 10 rats in each group, including a control group, a group treated with aspirin at a dosage of 10 mg/kg, a group treated with the total saponins from Radix et Rhizoma Notoginseng at a dosage of 100 mg/kg and aspirin at a dosage of 10 mg/kg, and a group treated with the total saponins from Radix et Rhizoma Notoginseng at a dosage of 100 mg/kg. The rats in the groups treated with the total saponins from Radix et Rhizoma Notoginseng and aspirin were administrated intragastrically with the total saponins from Radix et Rhizoma Notoginseng and aspirin daily for 4 weeks, and the rats in the control group were administrated intragastrically with an equivalent volume of normal saline daily.
After 4 weeks of administration, gastric tissues were taken from rats in each group and fixed with 4% formaldehyde solution, routinely embedded in paraffin and cut into slices, and stained with HE to observe the degree of inflammatory lesions in the tissues.

rat duodenal microvilli = assay: Ultrastructure of duodenal villi with transmission electron microscope; conditions: aspirin 10 mg/kg intragastrically daily for 4 weeks; rats
Protocol: as §2
After 4 weeks of administration, the duodenum was collected from rats in each group of rats and fixed in 2.5% glutaraldehyde buffer for 2 h, then washed with PH 7.4 buffer three times, and then soaked with 1% osmium tetroxide for 30 min, dehydrated with graded alcohol and acetone, and then embedded in epoxy resin 812. Ultra-thin slices were prepared, copper grids of 200 grid units were taken, the ultra-thin slices were again impregnated with uranyl acetate and lead citrate, and then analyzed under the electron microscope to observe changes in the ultrastructure of the duodenum in rats of each group.

[8] = aspirin 5 mg/kg intragastrically for a week
[9] = aspirin 10 mg/kg intragastrically for a week
[10] = aspirin 5 mg/kg intragastrically for a week before MCAO
[11] = aspirin 10 mg/kg intragastrically for a week before MCAO

In the case of `CC(=O)Oc1ccccc1C(=O)O` [aspirin], the “Myocardial infarction volume (%)” value [1, 8] is reported as 9.88%, the “Myocardial infarction volume (%)” value [1, 9] is reported as 8.75% and the “AST(U/L)” value [2, 8] is reported as 312.48 U/L. For the same compound, the “CK(U/L)” value [2, 8] was 1823.49 U/L, the “LDH(U/L)” value [2, 8] was 1105.54 U/L and the “AST(U/L)” value [2, 9] was 204.32 U/L. For the same compound, the “CK(U/L)” value [2, 9] was 1222.54 U/L, the “LDH(U/L)” value [2, 9] was 811.85 U/L and the “Score (neurological deficit, Longa)” value [3, 10] was 1.83. The “Score (neurological deficit, Longa)” value [3, 11] was 1.08, the “Volume of cerebral infarction” value [4, 10] was 16.08 and the “Volume of cerebral infarction” value [4, 11] was 13.96. For the same compound, the “Maximum platelet aggregation rate (%)” value [5, 8] was 56.80%, the “Maximum platelet aggregation rate (%)” value [5, 9] was 62.63% and the “IL-1β” value ([6]; aspirin 5 mg/kg) was 168.58 pg/mL. For the same compound, the “IL-4” value ([6]; aspirin 5 mg/kg) was 36.57 pg/mL, the “IL-6” value ([6]; aspirin 5 mg/kg) was 47.12 pg/mL and the “IL-1β” value ([6]; aspirin 10 mg/kg) was 189.69 pg/mL. The “IL-4” value ([6]; aspirin 10 mg/kg) was 35.45 pg/mL, the “IL-6” value ([6]; aspirin 10 mg/kg) was 47.15 pg/mL and the “Canine urea levels in cerebral cortex tissue” value ([7]; aspirin 5 mg/kg) was 8.95 µg/L. The “Canine urea levels in hippocampus” value ([7]; aspirin 5 mg/kg) was 2.11 µg/L, the “Canine urea levels in serum” value ([7]; aspirin 5 mg/kg) was 18.00 µg/L and the “Canine urea levels in cerebral cortex tissue” value ([7]; aspirin 10 mg/kg) was 8.12 µg/L. For the same compound, the “Canine urea levels in hippocampus” value ([7]; aspirin 10 mg/kg) was 2.01 µg/L, the “Canine urea levels in serum” value ([7]; aspirin 10 mg/kg) was 17.25 µg/L and the “gastric mucosa pathology (HE staining) compared with the control group” value (rat gastric mucosa) was “gastric mucosal epithelial cells were necrotic and inflammatory cells infiltrated”. The “microvilli on the duodenal surface (electron microscope) compared with the control group” value (rat duodenal microvilli) was “the microvilli on the duodenal surface decreased”.
